The target in this experiment is ACSS2 (Homo sapiens, UniProt Q9NR19). In words: biochemical.

In patent US20250186433A1, “ACSS2 INHIBITORS AND METHODS OF USE THEREOF” (EpiVario, Inc., priority 2017, published 2025) one finds IC50 data, which are given here for 34 molecules.

Molecules are shown by their SMILES.
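Also: Pyrophosphatase-coupled ACSS2 enzyme assay, 10 nM protein incubated 90 min at 37 °C with ATP, CoA and acetate, released phosphate read by Biomol Green absorbance at 620 nm.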

Sequence of ACSS2 (Q9NR19 whole entry): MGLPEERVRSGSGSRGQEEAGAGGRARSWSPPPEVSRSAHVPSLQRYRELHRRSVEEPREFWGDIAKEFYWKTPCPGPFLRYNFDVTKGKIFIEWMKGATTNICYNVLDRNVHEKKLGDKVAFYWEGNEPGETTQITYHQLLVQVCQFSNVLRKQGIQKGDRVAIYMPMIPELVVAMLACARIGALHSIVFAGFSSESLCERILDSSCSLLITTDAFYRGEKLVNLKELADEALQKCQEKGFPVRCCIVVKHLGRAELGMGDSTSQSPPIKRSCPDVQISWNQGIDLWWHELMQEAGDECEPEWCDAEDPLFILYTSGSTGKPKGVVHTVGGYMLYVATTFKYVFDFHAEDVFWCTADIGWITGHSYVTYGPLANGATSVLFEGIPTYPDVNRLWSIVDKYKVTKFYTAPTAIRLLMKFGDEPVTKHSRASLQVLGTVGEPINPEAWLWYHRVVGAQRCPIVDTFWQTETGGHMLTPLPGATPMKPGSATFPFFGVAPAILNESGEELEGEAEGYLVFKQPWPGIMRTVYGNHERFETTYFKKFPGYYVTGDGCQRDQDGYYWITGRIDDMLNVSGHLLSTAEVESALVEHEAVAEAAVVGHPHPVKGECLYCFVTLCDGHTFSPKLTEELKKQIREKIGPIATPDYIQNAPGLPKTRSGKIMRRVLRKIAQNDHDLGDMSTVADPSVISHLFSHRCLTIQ
Protocol: The assay is based on a coupling reaction with Pyrophosphatase: ACSS2 is converting ATP+CoA+Acetate=>AMP+pyrophosphate+Acetyl-CoA (Ac-CoA). Pyrophosphatase converts pyrophosphate, a product of the ACSS2 reaction, to phosphate which can be detected by measuring the absorbance at 620 nm after incubation with the Biomol green reagent (Enzo life Science, BML-AK111).
At the end of the reaction, Biomol Green was added for 30 minutes at RT and the activity was measured by reading the absorbance at 620 nm.

In the case of `CCC(F)(F)c1cccc(NC(=O)C2C(=O)N(c3ccc4ccn(CCc5ccccc5)c4c3)N=C2C)c1` (stereo not shown) [compound 477, N-[3-(1,1-difluoropropyl)phenyl]-3-methyl-5-oxo-1-[1-(2-phenylethyl)indol-6-yl]-4H-pyrazole-4-carboxamide], the IC50 (as a rule, the concentration that gives 50% inhibition) fell in the range of 6 to 100 nM. Molecule `CC1=NN(c2ccc(OC(F)F)cc2)C(=O)C1C(=O)Nc1cncc(C#N)c1` (stereo not shown) [compound 503, N-(5-cyanopyridin-3-yl)-1-(4-(difluoromethoxy)phenyl)-3-methyl-5-oxo-4,5-dihydro-1H-pyrazole-4-carboxamide] displayed an IC50 of 100 to 1000 nM.

Molecule `CCC(F)(F)c1cccc(NC(=O)C2C(=O)N(c3ccc4cc(C)n(C)c4c3)N=C2C)c1` (stereo not shown) [compound 502, N-[3-(1,1-difluoropropyl)phenyl]-1-(1,2-dimethylindol-6-yl)-3-methyl-5-oxo-4H-pyrazole-4-carboxamide] showed an IC50 of 0.01 to 6 nM.

As for `CCC(F)(F)c1cccc(NC(=O)C2C(=O)N(c3ccc4ccnnc4c3)N=C2C)c1` (stereo not shown) [compound 524, 1-(cinnolin-7-yl)-N-(3-(1,1-difluoropropyl)phenyl)-3-methyl-5-oxo-4,5-dihydro-1H-pyrazole-4-carboxamide], the IC50 was in the range of 6 to 100 nM. Under `CCC(F)(F)c1cccc(NC(=O)C2C(=O)N(c3ccc4ccn(C(=O)c5ccc(O)cc5)c4c3)N=C2C)c1` (stereo not shown) [compound 482, N-(3-(1,1-difluoropropyl)phenyl)-1-(1-(4-hydroxybenzoyl)-1H-indol-6-yl)-3-methyl-5-oxo-4,5-dihydro-1H-pyrazole-4-carboxamide] stands 0.01 to 6 nM; under `CC1=NN(c2ccc(OC(F)F)cc2)C(=O)C1C(=O)Nc1cccc(C(F)(F)C2CCCC2)c1` (stereo not shown) [compound 470, N-(3-(cyclopentyldifluoromethyl)phenyl)-1-(4-(difluoromethoxy)phenyl)-3-methyl-5-oxo-4,5-dihydro-1H-pyrazole-4-carboxamide], 100 to 1000 nM; under `CCC(F)(F)c1ccnc(NC(=O)C2C(=O)N(c3ccc(OC(F)F)cc3)N=C2C)c1` (stereo not shown) [compound 484, 1-(4-(difluoromethoxy)phenyl)-N-(4-(1,1-difluoropropyl)pyridin-2-yl)-3-methyl-5-oxo-4,5-dihydro-1H-pyrazole-4-carboxamide], 6 to 100 nM. `CCC(F)(F)c1cccc(NC(=O)C2C(=O)N(c3ccc4cccnc4c3)N=C2C)c1` (stereo not shown) [compound 474, N-(3-(1,1-difluoropropyl)phenyl)-3-methyl-5-oxo-1-(quinolin-7-yl)-4,5-dihydro-1H-pyrazole-4-carboxamide]: the IC50 was in the range of 0.01 to 6 nM. Under `CCC(F)(F)c1cccc(NC(=O)C2C(=O)N(c3ccc4ccn(C(=O)c5ccc(C)cc5)c4c3)N=C2C)c1` (stereo not shown) [compound 480, N-[3-(1,1-difluoropropyl)phenyl]-3-methyl-1-[1-(4-methylbenzoyl)indol-6-yl]-5-oxo-4H-pyrazole-4-carboxamide] stands 6 to 100 nM. Under `CCC(F)(F)c1cccc(NC(=O)C2C(=O)N(c3ccc4c(C)cn(C)c4c3)N=C2C)c1` (stereo not shown) [compound 497, N-(3-(1,1-difluoropropyl)phenyl)-1-(1,3-dimethyl-1H-indol-6-yl)-3-methyl-5-oxo-4,5-dihydro-1H-pyrazole-4-carboxamide] stands 0.01 to 6 nM; under `CC(F)(F)c1cccc(NC(=O)C2C(=O)N(c3ccc(OC(F)F)cc3)N=C2CS)c1` (stereo not shown) [compound 339], 100 to 1000 nM.

`C/C=C(/F)c1cccc(NC(=O)C2C(=O)N(c3ccc(OC(F)F)cc3)N=C2C)c1` (stereo not shown) [compound 495, (E)-1-(4-(difluoromethoxy)phenyl)-N-(3-(1-fluoroprop-1-en-1-yl)phenyl)-3-methyl-5-oxo-4,5-dihydro-1H-pyrazole-4-carboxamide] displayed an IC50 of 0.01 to 6 nM. Under `CC1=NN(c2ccc(OC(F)F)cn2)C(=O)C1C(=O)Nc1cccc(C(F)(F)C2CC2)c1` (stereo not shown) [compound 464, N-(3-(cyclopropyldifluoromethyl)phenyl)-1-(5-(difluoromethoxy)pyridin-2-yl)-3-methyl-5-oxo-4,5-dihydro-1H-pyrazole-4-carboxamide] stands 0.01 to 6 nM. The value for `CCC(F)(F)c1cccc(NC(=O)C2C(=O)N(c3ccc4ccn(C(=O)c5ccccc5O)c4c3)N=C2C)c1` (stereo not shown) [compound 509, N-(3-(1,1-difluoropropyl)phenyl)-1-(1-(2-hydroxybenzoyl)-1H-indol-6-yl)-3-methyl-5-oxo-4,5-dihydro-1H-pyrazole-4-carboxamid] was 0.01 to 6 nM. Consider `CCC(F)(F)c1cccc(NC(=O)C2C(=O)N(c3ccc(OC)cc3F)N=C2C)c1` (stereo not shown) [compound 505, N-(3-(1,1-difluoropropyl)phenyl)-1-(2-fluoro-4-methoxyphenyl)-3-methyl-5-oxo-4,5-dihydro-1H-pyrazole-4-carboxamide], for which the IC50 fell in the range of 0.01 to 6 nM. Take `CCC(F)(F)c1cccc(NC(=O)C2C(=O)N(c3ccc(OC)c(-c4cc(C)ccn4)c3)N=C2C)c1` (stereo not shown) [compound 537, N-(3-(1,1-difluoropropyl)phenyl)-1-(4-methoxy-3-(4-methylpyridin-2-yl)phenyl)-3-methyl-5-oxo-4,5-dihydro-1H-pyrazole-4-carboxamide]: the IC50 lay within 0.01 to 6 nM. The value for `CCC(F)(F)c1cccc(NC(=O)C2C(=O)N(c3ccc(OC)cc3C(C)=O)N=C2C)c1` (stereo not shown) [compound 516, 1-(2-acetyl-4-methoxyphenyl)-N-(3-(1,1-difluoropropyl)phenyl)-3-methyl-5-oxo-4,5-dihydro-1H-pyrazole-4-carboxamide] was 6 to 100 nM; that for `CCC(F)(F)c1cccc(NC(=O)C2C(=O)N(c3ccc4nccnc4c3)N=C2C)c1` (stereo not shown) [compound 488, N-(3-(1,1-difluoropropyl)phenyl)-3-methyl-5-oxo-1-(quinoxalin-6-yl)-4,5-dihydro-1H-pyrazole-4-carboxamide] was 0.01 to 6 nM.

The molecule `CCC(F)(F)c1cccc(NC(=O)C2C(=O)N(c3ccc4ccn(-c5ccccc5)c4c3)N=C2C)c1` (stereo not shown) [compound 472, N-[3-(1,1-difluoropropyl)phenyl]-3-methyl-5-oxo-1-(1-phenylindol-6-yl)-4H-pyrazole-4-carboxamide] gave an IC50 of 0.01 to 6 nM. The value for `CCC(F)(F)c1cccc(NC(=O)C2C(=O)N(c3ccc4ccoc4c3)N=C2C)c1` (stereo not shown) [compound 491, 1-(benzofuran-6-yl)-N-(3-(1,1-difluoropropyl)phenyl)-3-methyl-5-oxo-4,5-dihydro-1H-pyrazole-4-carboxamide] was 0.01 to 6 nM. In turn, `CC1=NN(c2cc(-c3cccnc3)cc(-c3ccc4cc[nH]c4c3)c2)C(=O)C1C(=O)Nc1cccc(C(C)(F)F)c1` (stereo not shown) [compound 473] showed an IC50 of 6 to 100 nM. Regarding `CCC(F)(F)c1cccc(NC(=O)C2C(=O)N(c3ccc4ccn(C(=O)c5ccccc5)c4c3)N=C2C)c1` (stereo not shown) [compound 475, 1-(1-benzoylindol-6-yl)-N-[3-(1,1-difluoropropyl)phenyl]-3-methyl-5-oxo-4H-pyrazole-4-carboxamide], the IC50 was 0.01 to 6 nM.

`COc1cccc(Cc2cc(-c3cccnc3)cc(N3N=C(C)C(C(=O)Nc4cccc(C(C)(F)F)c4)C3=O)c2)c1` (stereo not shown) [compound 461] showed an IC50 of 6 to 100 nM. As for `CCC(F)(F)c1cccc(NC(=O)C2C(=O)N(c3ccc(OC)c(-c4ccc(C)cn4)c3)N=C2C)c1` (stereo not shown) [compound 534, N-(3-(1,1-difluoropropyl)phenyl)-1-(4-methoxy-3-(5-methylpyridin-2-yl)phenyl)-3-methyl-5-oxo-4,5-dihydro-1 H-pyrazole-4-carboxamide], the IC50 was in the range of 0.01 to 6 nM. Consider `CCC(F)(F)c1cncc(NC(=O)C2C(=O)N(c3ccc(OC(F)F)cc3)N=C2C)c1` (stereo not shown) [compound 511, 1-(4-(difluoromethoxy)phenyl)-N-(5-(1,1-difluoropropyl)pyridin-3-yl)-3-methyl-5-oxo-4,5-dihydro-1H-pyrazole-4-carboxamide], for which the IC50 was 0.01 to 6 nM. Under `CC1=NN(c2ccc(OC(F)F)cc2)C(=O)C1C(=O)Nc1cccc(C(F)(F)C2CC2)c1` (stereo not shown) [compound 481, N-(3-(cyclopropyldifluoromethyl)phenyl)-1-(4-(difluoromethoxy)phenyl)-3-methyl-5-oxo-4,5-dihydro-1H-pyrazole-4-carboxamide] stands 0.01 to 6 nM; under `CCC(F)(F)c1cccc(NC(=O)C2C(=O)N(c3ccc(S(C)(=O)=O)cc3)N=C2C)c1` (stereo not shown) [compound 508, N-(3-(1,1-difluoropropyl)phenyl)-3-methyl-1-(4-(methylsulfonyl)phenyl)-5-oxo-4,5-dihydro-1H-pyrazole-4-carboxamide], 0.01 to 6 nM; under `CCC(F)(F)c1cccc(NC(=O)C2C(=O)N(c3ccc(C#N)cc3)N=C2C)c1` (stereo not shown) [compound 501, 1-(4-cyanophenyl)-N-(3-(1,1-difluoropropyl)phenyl)-3-methyl-5-oxo-4,5-dihydro-1H-pyrazole-4-carboxamide], 0.01 to 6 nM. The value for `COc1ccccc1Cc1cc(-c2cccnc2)cc(N2N=C(C)C(C(=O)Nc3cccc(C(C)(F)F)c3)C2=O)c1` (stereo not shown) [compound 466] was 6 to 100 nM; that for `CCC(F)(F)c1cccc(NC(=O)C2C(=O)N(c3ccc(OC)c(-c4ncccc4C)c3)N=C2C)c1` (stereo not shown) [compound 535, N-(3-(1,1-difluoropropyl)phenyl)-1-(4-methoxy-3-(3-methylpyridin-2-yl)phenyl)-3-methyl-5-oxo-4,5-dihydro-1H-pyrazole-4-carboxamide] was 0.01 to 6 nM; that for `CCC(F)(F)c1cccc(NC(=O)C2C(=O)N(c3ccc4nc[nH]c4c3)N=C2C)c1` (stereo not shown) [compound 500, 1-(1H-benzo[d]imidazol-6-yl)-N-(3-(1,1-difluoropropyl)phenyl)-3-methyl-5-oxo-4,5-dihydro-1H-pyrazole-4-carboxamide] was 0.01 to 6 nM.

Regarding `CCC(F)(F)c1cccc(NC(=O)C2C(=O)N(c3cc4[nH]ccc4cn3)N=C2C)c1` (stereo not shown) [compound 507, N-(3-(1,1-difluoropropyl)phenyl)-3-methyl-5-oxo-1-(1H-pyrrolo[3,2-c]pyridin-6-yl)-4,5-dihydro-1H-pyrazole-4-carboxamide], the IC50 was 0.01 to 6 nM. `CCC(F)(F)c1cccc(NC(=O)C2C(=O)N(c3ccc4ccn(C)c4c3)N=C2C)c1` (stereo not shown) [compound 462, N-[3-(1,1-difluoropropyl)phenyl]-3-methyl-1-(1-methylindol-6-yl)-5-oxo-4H-pyrazole-4-carboxamide] gave an IC50 of 0.01 to 6 nM.

The molecule `CC1=NN(c2cc(-c3cccnc3)cc(-c3cccc4[nH]ccc34)c2)C(=O)C1C(=O)Nc1cccc(C(C)(F)F)c1` (stereo not shown) [compound 465] registered an IC50 of 6 to 100 nM.
